Reference: US9884839B2, “Inhibitors of 17Beta-hydroxysteroid dehydrogenases type 1 and type 2” (ElexoPharm GmbH, priority 2014, dated 2018)
Where two headings read alike, the source gives them in different places.

Legend:
in vitro = conditions: human, pooled human liver S9 fraction
human 17β-HSD1 = target: T1, human 17β-HSD1 (Homo sapiens, UniProt P14061); assay: Inhibition of human 17β-HSD1 (conversion of [3H]-E1 to E2, HPLC radioflow detection); assay type: biochemical; conditions: for IC50: read-out: IC50 [nM] h17β-HSD1; for inhibition at 0.01 µM: read-out: % inhibition h17β-HSD1 @ 10 nM
T1 construct: For the partial purification of 17β-HSD1, the cytosolic fraction was precipitated with ammonium sulfate; from tissue; host or cells: human placenta, cytosolic fraction, ammonium sulfate precipitate
T1 sequence (P14061 1-328): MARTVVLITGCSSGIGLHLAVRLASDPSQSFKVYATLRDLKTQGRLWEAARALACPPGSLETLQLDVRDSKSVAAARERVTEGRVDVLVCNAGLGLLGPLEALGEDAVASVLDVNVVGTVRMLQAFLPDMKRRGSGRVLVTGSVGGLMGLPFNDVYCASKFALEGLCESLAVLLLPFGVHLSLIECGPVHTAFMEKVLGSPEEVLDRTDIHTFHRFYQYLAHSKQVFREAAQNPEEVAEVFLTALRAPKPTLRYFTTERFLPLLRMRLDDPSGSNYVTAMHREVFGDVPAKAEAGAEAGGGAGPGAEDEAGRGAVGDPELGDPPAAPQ

human 17β-HSD2 = target: T2, human 17β-HSD2 (Homo sapiens, UniProt P37059); assay: Inhibition of human 17β-HSD2 (conversion of [3H]-E2 to E1); assay type: biochemical; conditions: for IC50: read-out: IC50 [nM] h17β-HSD2; for inhibition at 0.01 µM: read-out: % inhibition h17β-HSD2 @ 10 nM
T2 construct: 17β-HSD2 was obtained from the microsomal fraction; from tissue; host or cells: human placenta, microsomal fraction
T2 sequence (P37059 1-387): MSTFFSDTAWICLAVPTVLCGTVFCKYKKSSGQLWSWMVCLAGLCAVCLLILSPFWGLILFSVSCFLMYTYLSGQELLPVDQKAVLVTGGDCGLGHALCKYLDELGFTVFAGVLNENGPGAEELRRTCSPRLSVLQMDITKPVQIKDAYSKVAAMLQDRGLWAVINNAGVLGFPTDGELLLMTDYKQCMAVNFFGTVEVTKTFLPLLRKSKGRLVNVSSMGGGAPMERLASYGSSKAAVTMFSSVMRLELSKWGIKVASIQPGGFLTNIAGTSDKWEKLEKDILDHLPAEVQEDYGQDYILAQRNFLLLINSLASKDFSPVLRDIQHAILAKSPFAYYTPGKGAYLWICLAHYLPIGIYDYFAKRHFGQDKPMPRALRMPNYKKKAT

[1] = human liver S9, 1 mg/mL; unit not given
rat 17β-HSD1 = target: T3, rat 17β-HSD1 (Rattus norvegicus, UniProt P51657); assay: Inhibition of rat 17β-HSD1 (recombinant, HEK293 lysate); assay type: biochemical; conditions: read-out: % Inhibition r17β-HSD1; for inhibition at […]: Cmpd conc. 250 nM
T3 construct: made in house; host or cells: HEK293 cells, transient transfection; 1,000 g supernatant of the cell lysate
T3 sequence (P51657 1-344): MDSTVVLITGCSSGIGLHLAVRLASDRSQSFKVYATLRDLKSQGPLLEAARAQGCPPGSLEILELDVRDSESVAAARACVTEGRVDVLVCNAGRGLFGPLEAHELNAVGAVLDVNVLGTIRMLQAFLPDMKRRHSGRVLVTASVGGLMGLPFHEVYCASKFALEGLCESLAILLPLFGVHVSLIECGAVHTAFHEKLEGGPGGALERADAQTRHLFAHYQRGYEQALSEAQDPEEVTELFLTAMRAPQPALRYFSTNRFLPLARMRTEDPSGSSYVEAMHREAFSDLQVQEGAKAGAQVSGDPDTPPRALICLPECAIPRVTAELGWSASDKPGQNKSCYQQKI

mouse 17β-HSD1 = target: T4, mouse 17β-HSD1 (Mus musculus, UniProt P51656); assay: Inhibition of mouse 17β-HSD1 (recombinant, HEK293 lysate); assay type: biochemical
T4 construct: made in house; host or cells: HEK293 cells, transient transfection; 1,000 g supernatant of the cell lysate
T4 sequence (P51656 1-344): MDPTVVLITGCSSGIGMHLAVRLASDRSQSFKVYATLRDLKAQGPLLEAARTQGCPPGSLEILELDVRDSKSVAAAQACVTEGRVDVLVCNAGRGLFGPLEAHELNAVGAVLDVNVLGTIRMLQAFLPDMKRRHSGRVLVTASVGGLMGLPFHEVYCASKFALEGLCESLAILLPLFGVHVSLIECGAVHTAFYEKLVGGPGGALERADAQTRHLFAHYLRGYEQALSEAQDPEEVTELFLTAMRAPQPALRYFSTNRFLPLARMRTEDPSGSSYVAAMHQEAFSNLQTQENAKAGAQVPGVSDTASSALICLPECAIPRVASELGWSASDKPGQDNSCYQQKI

mouse 17β-HSD2 = target: T5, mouse 17β-HSD2 (Mus musculus, UniProt P51658); assay: Inhibition of mouse 17β-HSD2 (liver microsomal fraction); assay type: biochemical; conditions: for inhibition at 1 µM: read-out: Inhibition @ 1 μM m17β-HSD2; for inhibition at 0.05 µM: read-out: % inhibition m17β-HSD2 @ 50 nM; for IC50: read-out: IC50 m17β-HSD2
T5 construct: The pellet fractions containing the microsomal 17β-HSD2 were used for the determination of E1 formation; from tissue; host or cells: mouse liver, microsomal fraction
T5 sequence (P51658 1-381): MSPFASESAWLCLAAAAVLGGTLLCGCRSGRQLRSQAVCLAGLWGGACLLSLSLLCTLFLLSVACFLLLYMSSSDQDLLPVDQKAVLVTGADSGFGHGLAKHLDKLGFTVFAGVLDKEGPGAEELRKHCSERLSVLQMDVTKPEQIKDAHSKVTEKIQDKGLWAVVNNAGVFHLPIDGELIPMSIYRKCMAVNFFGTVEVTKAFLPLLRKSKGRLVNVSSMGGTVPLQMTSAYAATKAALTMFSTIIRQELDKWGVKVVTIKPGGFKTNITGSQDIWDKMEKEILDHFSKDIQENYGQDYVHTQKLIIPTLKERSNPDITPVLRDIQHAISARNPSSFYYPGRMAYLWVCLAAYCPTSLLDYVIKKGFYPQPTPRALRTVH

[2] = read-out: Inhibition @ 1 μM m17β-HSD1
[3] = human placental cytosolic enzyme, E1 500 nM, NADH, Tables 1, 4-11

SMILES	half-life at 1 µM (in vitro) [min]	IC50 (human 17β-HSD2) [nM]	CLint [1]	inhibition at 1 µM (mouse 17β-HSD1; [2]) [%]	inhibition at 1 µM (mouse 17β-HSD2) [%]	IC50 (human 17β-HSD1; [3]) [nM]	inhibition at 0.01 µM (human 17β-HSD1) [%]	inhibition at 0.01 µM (human 17β-HSD2) [%]	inhibition at 0.05 µM (mouse 17β-HSD2) [%]	further results
Cc1cc(-c2ccc(C(=O)c3cccc(O)c3)s2)ccc1O [Compound F1, reference compound]	3.6	384	193.8	18	22					IC50 (human 17β-HSD1): 8 nM; inhibition at 5 µM (rat 17β-HSD1; Cmpd conc. 5000 nM): 48%
COc1c(Cl)cc(-c2ccc(C(=O)c3c(F)ccc(O)c3F)s2)cc1Cn1ccnn1 [Compound 31, [5-(3-Chloro-4-methoxy-5-[1,2,3]triazol-1-ylmethyl-phenyl)-thiophen-2-yl]-(2,6-difluoro-3-hydroxy-phenyl)-methanone]		9		32	84	2.1				inhibition at […] (rat 17β-HSD1): 39%
Cc1cc(-c2ccc(C(=O)c3cccc(O)c3Cl)s2)cc(C)c1O [Compound 79, (2-Chloro-3-hydroxyphenyl)(5-(4-hydroxy-3,5-dimethylphenyl)thiophen-2-yl)methanone]	22		31.6				31	64	70	
O=C(c1ccc(-c2cccc3[nH]ccc23)s1)c1cc(F)c(F)c(O)c1F [Compound 62, (5-(1H-Indol-4-yl)thiophen-2-yl)(2,4,5-trifluoro-3-hydroxyphenyl)methanone]	48.9		14.2				93	100	46	
O=C(c1ccc(-c2ccc(O)c(Cl)c2)s1)c1cc(F)c(F)c(O)c1F [Compound 41, (5-(3-Chloro-4-hydroxyphenyl)thiophen-2-yl)(2,4,5-trifluoro-3-hydroxyphenyl)methanone]	11.3	3.1	61.5	33	89	1.1				
Cc1c(N)cccc1-c1ccc(C(=O)c2cc(F)c(F)c(O)c2F)s1 [Compound 58, (5-(3-Amino-2-methylphenyl)thiophen-2-yl)(2,4,5-trifluoro-3-hydroxyphenyl)methanone]	20.8		33.3				1.1	61	40	
COc1c(Cl)cc(-c2ccc(C(=O)c3c(F)ccc(O)c3F)s2)cc1Cl [Compound 15, [5-(3,5-Dichloro-4-methoxy-phenyl)-thiophen-2-yl]-(2,6-difluoro-3-hydroxy-phen-yl)-methanone]	18.1	41	38.3	43		0.6				IC50 (mouse 17β-HSD2; mouse liver microsomal fraction, E2 10 nM, NAD+): 550 nM
N#Cc1cc(-c2ccc(C(=O)c3c(F)ccc(O)c3F)s2)ccc1O [Compound 25, 5-[5-(2,6-Difluoro-3-hydroxy-benzoyl)-thiophen-2-yl]-2-hydroxy-benzonitrile]	10.7	29	64.5	23	40	3.3				
O=C(c1ccc(-c2ccc(O)cc2)s1)c1cc(F)c(F)c(O)c1F [Compound 68, (5-(4-Hydroxyphenyl)thiophen-2-yl)(2,4,5-trifluoro-3-hydroxyphenyl)methanone]	27.4		25.3				66	96	42	
Nc1cccc(-c2ccc(C(=O)c3c(F)ccc(O)c3F)s2)c1 [Compound 1, [5-(3-Aminophenyl)thiophen-2-yl](2,6-difluoro-3-hydroxyphenyl)methanone]				30						inhibition at […] (rat 17β-HSD1): 51%; inhibition at 1 µM (mouse 17β-HSD1; read-out: % inhibition m17β-HSD1 @ 1 μM): 30%
COc1ccc(-c2ccc(C(=O)c3c(F)ccc(O)c3F)s2)cc1Cl [Compound 12, [5-(3-Chloro-4-methoxy-phenyl)-thiophen-2-yl]-(2,6-difluoro-3-hydroxy-phenyl)-methanone]	4.6	11	149.6	40	64	1.3				
O=C(c1ccc(-c2cccc(Cl)c2)s1)c1c(F)ccc(O)c1F [Compound 11, [5-(3-Chloro-phenyl)-thiophen-2-yl]-(2,6-difluoro-3-hydroxy-phenyl)-methanone]	4.3	10	160.7	60	75	1.2				
CS(=O)(=O)Nc1cccc(-c2ccc(C(=O)c3cc(F)c(F)c(O)c3F)s2)c1 [Compound 63, N-(3-(5-(2,4,5-trifluoro-3-hydroxybenzoyl)thiophen-2-yl)phenyl)methanesulfonamide]	25		27.7				53	77	38	
Cn1cnc(S(=O)(=O)Nc2cccc(-c3ccc(C(=O)c4cc(F)c(F)c(O)c4F)s3)c2)c1 [Compound 48, 1-Methyl-N-(3-(5-(2,4,5-trifluoro-3-hydroxybenzoyl)thiophen-2-yl)phenyl)-1H-imidazole-4-sulfonamide]	24.9		27.9	12.1		21				IC50 (mouse 17β-HSD2): 155 nM
Cc1cc(C(=O)c2c(F)ccc(O)c2F)sc1-c1ccc(O)c(Cl)c1 [Compound 21, [5-(3-Chloro-4-hydroxy-phenyl)-4-methyl-thiophen-2-yl]-(2,6-difluoro-3-hydroxy-phenyl)-methanone]	2.9	11	241.4	38		0.8				IC50 (mouse 17β-HSD2): 78 nM
Cc1cc(-c2ccc(C(=O)c3cc(F)c(F)c(O)c3F)s2)cc(C)c1O [Compound 50, (5-(4-Hydroxy-3,5-dimethylphenyl)thiophen-2-yl)(2,4,5-trifluoro-3-hydroxyphenyl)methanone]	38	1.3	18.2			0.9				IC50 (mouse 17β-HSD1; recombinant mouse enzyme, E1 10 nM, NADPH, read-out: IC50 m17β-HSD1): 650 nM; IC50 (mouse 17β-HSD2): 100 nM
